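The compound was tested at five concentrations on cells cultured in 96-well plates, with a 48-hour exposure period. GI50 marks 50% less growth. Definition used: TGI = concentration required for complete inhibition of growth.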

The text below walks through data of PubChem BioAssay (NCI).

The first assay deals with DLD-1 colon. Description: growth of human tumour cells (NCI), 48 h.
Take `COC1CC(OS(=O)(=O)c2ccc([N+](=O)[O-])cc2)C(OC(=O)c2ccccc2)C(C)O1` (stereo not given): the TGI was more than 100 µM.

For a further assay, the system named is DMS 114 small cell lung. Nature of the assay: growth of human tumour cells (NCI), 48 h.
On to `Oc1c(C(Nc2cccc3cccnc23)c2ccccc2)ccc2cccnc12` (stereo not given), for which the TGI was 15.6 µM.

A further assay concerns HCT-116 colon. Description: growth of human tumour cells (NCI), 48 h.
Take `Oc1c(C(Nc2cccc3cccnc23)c2ccccc2)ccc2cccnc12` (stereo not given): the TGI was more than 100 µM.

With `CN(O)c1nc(N(C)O)nc(N2CCOCC2)n1`, the GI50 is 1.07 µM and the TGI is more than 100 µM.

As to `COc1ccc(-c2c[nH]c(C(=O)O)c2-c2cc(OC)c(OC)c(OC)c2)cc1`, the GI50 is 5.02 µM and the TGI is more than 100 µM.

`C#Cc1c(F)ccc2cc(O)cc(-c3ncc4c(N5CC6CCC(C5)N6)nc(OC[C@@]56CCCN5C[C@H](F)C6)nc4c3F)c12`: the GI50 is 2.62 µM and the TGI came to 14 µM.

Turning to `C=C(C)C(=O)Nc1ccc(NC(C)C)cc1`, the GI50 is more than 100 µM and the TGI was more than 100 µM.

Turning to `COc1cc(CSc2nc3ccc(C)cc3c(=O)n2-c2ccccc2)cc(OC)c1OC`, the GI50 was 1.03 µM and the TGI was more than 100 µM.

For `C=C(C)C(=O)O[C@H]1CC(=C)[C@@H]2C[C@H](O)[C@](O)(CCl)[C@@H]2[C@H]2OC(=O)C(=C)[C@@H]21`, the GI50 was 1.67 µM and the TGI came to 3.19 µM.

`O=C(O)CNC(=O)c1ccc(-c2ccccc2)cc1`: the TGI was more than 100 µM.

In turn, `CCC1C2Cc3ccc(O)cc3C1(CC)CCN2C` (stereo not given) returned a TGI of more than 100 µM.

As to `C(#Cc1ccccc1C#Cc1cccs1)c1cccs1`, the GI50 is 21.8 µM and the TGI is more than 100 µM.

Consider `COC1CC(OS(=O)(=O)c2ccc([N+](=O)[O-])cc2)C(OC(=O)c2ccccc2)C(C)O1` (stereo not given), for which the TGI was more than 100 µM.

In turn, `COc1ccc(C2=CC(c3ccc4c(c3)OCO4)c3c(c4ccccc4oc3=O)O2)cc1OC` (stereo not given) showed a TGI of more than 100 µM.

Consider `C=C1C(=O)O[C@H]2[C@H]1CC/C(COC(=O)NCc1cn(C)c3ccccc13)=C\CC[C@@]1(C)O[C@@H]21`, for which the GI50 is 0.288 µM and the TGI stood at 1.07 µM.

Consider `CC(C)[C@H](N)C(=O)N1CCC[C@H]1B(O)O`, for which the GI50 was more than 100 µM and the TGI was more than 100 µM.

With `COc1ccc2cc(C(=O)/C=C/c3ccc(Cl)cc3Cl)ccc2c1`, the GI50 is 3.04 µM and the TGI was found to be 10.3 µM.

As to `CC(C)(C)n1cc(-c2ccnc(NCCCNS(=O)(=O)c3ccc(C(F)(F)F)cc3)c2)c(-c2cccc(O)c2)n1`, the GI50 was 1.55 µM and the TGI came out at 3.08 µM.

Take `O=C1Nc2ccccc2/C1=C/C(=O)c1coc2c1C(=O)c1ccccc1C2=O`: the GI50 is more than 100 µM and the TGI was more than 100 µM.

Take `Nc1c(C(=O)c2cccc(-c3ccncc3)c2)cnn1-c1ccc(F)cc1F`: the GI50 is 6.25 µM and the TGI was more than 25 µM.

In the case of `C=C1C(=O)O[C@H]2[C@H]1CC/C(COC(=O)NCc1ccc(Cn3c(=O)sn(CCCl)c3=O)cc1)=C\CC[C@@]1(C)O[C@@H]21`, the GI50 is 1.62 µM and the TGI was 3.08 µM.

As for `COc1ccc2c(c1)c(=O)oc1cc(OC/C(C)=N\O)ccc12`, the GI50 was more than 100 µM and the TGI was more than 100 µM.

The subject of another assay is MDA-MB-435. Description: growth of human tumour cells (NCI), 48 h.
Turning to `CN(O)c1nc(N(C)O)nc(N2CCOCC2)n1`, the GI50 is 6.6 µM and the TGI was more than 100 µM.

With `COc1ccc(-c2c[nH]c(C(=O)O)c2-c2cc(OC)c(OC)c(OC)c2)cc1`, the GI50 was 1.6 µM and the TGI amounted to 4.19 µM.

For the compound `C#Cc1c(F)ccc2cc(O)cc(-c3ncc4c(N5CC6CCC(C5)N6)nc(OC[C@@]56CCCN5C[C@H](F)C6)nc4c3F)c12`, the GI50 was 13.6 µM and the TGI amounted to 27.3 µM.

Regarding `C=C(C)C(=O)Nc1ccc(NC(C)C)cc1`, the GI50 is more than 100 µM and the TGI was more than 100 µM.

With `COc1cc(CSc2nc3ccc(C)cc3c(=O)n2-c2ccccc2)cc(OC)c1OC`, the GI50 was 0.269 µM and the TGI was 0.896 µM.

`C=C(C)C(=O)O[C@H]1CC(=C)[C@@H]2C[C@H](O)[C@](O)(CCl)[C@@H]2[C@H]2OC(=O)C(=C)[C@@H]21`: the GI50 was 1.99 µM and the TGI is 3.77 µM.

In turn, `O=C(O)CNC(=O)c1ccc(-c2ccccc2)cc1` gave a TGI of more than 100 µM.

As to `CCC1C2Cc3ccc(O)cc3C1(CC)CCN2C` (stereo not given), the TGI was more than 100 µM.

Turning to `C(#Cc1ccccc1C#Cc1cccs1)c1cccs1`, the GI50 is 37.2 µM and the TGI is more than 100 µM.

In the case of `COc1ccc(C2=CC(c3ccc4c(c3)OCO4)c3c(c4ccccc4oc3=O)O2)cc1OC` (stereo not given), the TGI was 9.25 µM.

With `C=C1C(=O)O[C@H]2[C@H]1CC/C(COC(=O)NCc1cn(C)c3ccccc13)=C\CC[C@@]1(C)O[C@@H]21`, the GI50 is 1.28 µM and the TGI worked out at 3.05 µM.

Turning to `CC(C)[C@H](N)C(=O)N1CCC[C@H]1B(O)O`, the GI50 was more than 100 µM and the TGI is more than 100 µM.

Turning to `COc1ccc2cc(C(=O)/C=C/c3ccc(Cl)cc3Cl)ccc2c1`, the GI50 was 4.5 µM and the TGI turned out to be 17.7 µM.

In the case of `CC(C)(C)n1cc(-c2ccnc(NCCCNS(=O)(=O)c3ccc(C(F)(F)F)cc3)c2)c(-c2cccc(O)c2)n1`, the GI50 is 1.81 µM and the TGI was found to be 3.35 µM.

As for `O=C1Nc2ccccc2/C1=C/C(=O)c1coc2c1C(=O)c1ccccc1C2=O`, the GI50 was more than 100 µM and the TGI was more than 100 µM.

As to `Nc1c(C(=O)c2cccc(-c3ccncc3)c2)cnn1-c1ccc(F)cc1F`, the GI50 is 0.684 µM and the TGI amounted to 3.56 µM.

In the case of `C=C1C(=O)O[C@H]2[C@H]1CC/C(COC(=O)NCc1ccc(Cn3c(=O)sn(CCCl)c3=O)cc1)=C\CC[C@@]1(C)O[C@@H]21`, the GI50 was 1.74 µM and the TGI came out at 3.47 µM.

Regarding `COc1ccc2c(c1)c(=O)oc1cc(OC/C(C)=N\O)ccc12`, the GI50 was more than 100 µM and the TGI is more than 100 µM.
